From patent publication US20240368120A1 (Terns Pharmaceuticals, Inc., priority 2023, published 2024)

How the values were obtained:
[1] = Rat pharmacokinetics, oral dosing; assay type: in vivo, Sprague-Dawley rats; conditions: male, Sprague-Dawley, plasma; for half-life: read-out: Rat T1/2
[2] = Metabolic stability in rat hepatocytes; assay type: in vitro ADME; conditions: cryopreserved hepatocytes, 1 μM, 1×10^6 cells/mL, 0-240 min; for half-life at 1 μM: read-out: Rat t1/2
Experimental: (§1) Test compounds were incubated in rat and human hepatocytes and stability was assessed from the substrate […] approach. Test compounds were dissolved in dimethyl sulfoxide (DMSO) to create a 10 mM Stock, and then further diluted to create a 1000× Working Stock of 1 mM with DMSO in 96-well plates for test compounds and the positive control (midazolam). Vials containing cryopreserved hepatocytes were removed from the liquid nitrogen tank and immediately immersed in a 37° C. water bath. The vials were shaken gently until the contents had thawed and were then immediately emptied into 48 mL of pre-warmed HT Medium in a 50 mL conical tube. Cells remaining in the vial were resuspended with 1.0 mL of pre-warmed HT Medium and added to the conical tube. The tube was capped and then gently inverted several times to resuspend the hepatocytes. The cell suspension was centrifuged at 50×g at room temperature for 5 minutes and the supernatant discarded. The cell pellet was loosened by gently swirling the centrifuge tube and was re-suspended in 4 mL of warm Dulbecco's Modified Eagle medium (DMEM). Cell density was determined by a cell counter by Nexcelom, and DMEM medium was added to obtain a target density of 1×10^6 cells/mL. The assay was carried out in 96-well microtiter plates. Test Compounds were incubated at 1 μM with 1×10^6 cells/mL hepatocytes in DMEM for 0, 30, 60, 120 and 240 minutes. The incubation was carried out with gentle shaking at 37° C. under a humid atmosphere of 95% air/5% CO2. The volume of the incubation mixture was 37 μL with a final 0.1% DMSO. At each of the time points, the incubation was stopped by adding 150 μL quenching solution (100% acetonitrile, 0.1% formic acid containing bucetin as an internal standard for positive ESI mode). Subsequently, the mixtures were vortexed for 20 min and centrifuged at 4,000 RPM at 10° C. The supernatant (80 μL) was transferred to a clean 96-well plate and analyzed by LC-MS/MS. Midazolam at 1 μM with a final 0.1% DMSO was included as a positive control to verify assay performance. The percent parent remaining, intrinsic and predicted hepatic clearance and t1/2 were calculated. All samples were analyzed by LC-MS/MS using an AB Sciex API 4000 instrument, coupled to a Shimadzu LC-20AD LC Pump system. Separation was achieved using a Waters Atlantis T3 dC18 reverse phase HPLC column (20 mm×2.1 mm) at a flow rate of 0.5 mL/min. The mobile phase consisted of 0.1% formic acid in water (solvent A) and 0.1% formic acid in 100% acetonitrile (solvent B). Elution conditions are detailed below.
(§2) The ion optics of each test compound were optimized for their declustering potential (DP), […] (CE), collision-cell exit potential (CXP) and used in a selected ion monitoring experiment in the positive ion mode. The peak area ratio of each test compound to internal standard was then evaluated for stability. The extent of metabolism was calculated based on the disappearance of the test compound, compared to its initial concentration. The initial rates of clearance of the test compound were calculated using the linear regression plot of semi-log % remaining of the compound versus time. The elimination rate constant (k) of the linear regression plot was then used to determine t1/2 and the intrinsic clearance (CLint) using the following formula, where Chepatocyte (million cells/mL) is the cell density of the incubation:
(§3) The predicted hepatic clearance (CLhep) was calculated using the well stirred method with the following formula with CLint (in vivo) normalized based on liver weight: […]
(§4) The relevant physiological parameters of liver weight, blood flow, and hepatocellularity for various species are listed below: […]

[3] = tested on: rat hepatocytes; assay: Metabolic stability in rat hepatocytes; assay type: in vitro ADME; conditions: predicted hepatic clearance, well stirred method
Experimental: as §1, §2, §3, §4

[4] = Rat pharmacokinetics, intravenous dosing; assay type: in vivo, Sprague-Dawley rats; conditions: male, Sprague-Dawley, IV bolus dosing at 3.0 mg/kg, plasma
Experimental: Intravenous dosing: Compounds were formulated at 1.0 mg/mL in a solution comprising 5% polyethylene glycol 400 and 95% (12% (w/v) sulfobutyl-β-cyclodextrin in water) (v/v). Formulated compounds were sterile filtered through a 0.22 micron filter before dosing. Compounds were administered to male, 7-11-week-old Sprague-Dawley rats by jugular vein cannula infusion over 30 minutes at a dose of 1 mg/kg. Oral dosing: Compounds were formulated at 1.0 mg/mL in a solution comprising 5% polyethylene glycol 400 and 95% (12% (w/v) sulfobutyl-β-cyclodextrin in water) (v/v). Formulated compounds were administered to male, 7-11 week old Sprague-Dawley rats by oral gavage at a dose of 10 mg/kg or 3 mg/kg.
Sample collection: Blood collections of about 0.2 mL per time point were performed from jugular vein or other suitable site of each animal, into pre-chilled commercial EDTA-K2 tubes and placed on wet ice until centrifugation. Blood samples were processed for plasma by centrifugation at approximately 4° C., 3,200 g for 10 min. Plasma was collected and transferred into pre-labeled 96 well plate or polypropylene tubes, quick frozen over dry ice and kept at −60° C. or lower until
Data analysis: Plasma concentration versus time data was plotted in graph and analyzed by non-compartmental approaches using the Phoenix WinNonlin 6.3 software program. Related PK parameters were calculated according to dosing route, e.g., CL, Vdss and C0 for intravenous administration, Cmax, Tmax or % F for extravascular administration, and T1/2, AUC(0-t), AUC(0-inf), MRT(0-t), MRT(0-inf) for all routes.

AUC ([1]; oral dosing at 3 mg/kg) | Cmax ([1]; oral dosing at 3 mg/kg) | half-life ([1]; oral dosing at 3 mg/kg) | bioavailability ([1]; oral dosing at 3 mg/kg) | CLint scaled at 1 μM [2] | half-life at 1 μM [2] | Rat Clhep predicted [3] | AUC ([1]; oral dosing at 10 mg/kg) | Cmax ([1]; oral dosing at 10 mg/kg) | half-life ([1]; oral dosing at 10 mg/kg) | bioavailability ([1]; oral dosing at 10 mg/kg) | AUC [4] | C0 [4] | half-life ([4]; read-out: Rat T1/2) | Compound
< 500 ng·h/mL | < 500 ng/mL | ≥ 150 min | < 25% | 27.4 ± 1.77 mL/min/kg | 121 ± 7.83 min | 18.31 ± 1.71 mL/min/kg | – | – | – | – | – | – | – | COc1cc(C(=O)O)cc2c1nc(CN1CCC(c3cccc(OCc4ccc(C#N)cc4F)n3)CC1)n2C[C@@H]1CCO1 [Compound 8, (S)-2-((4-(6-((4-Cyano-2-fluorobenzyl)oxy)pyridin-2-yl)piperidin-1-yl)methyl)-4-methoxy-1-(oxetan-2-ylmethyl)-1H-benzo[d]imidazole-6-carboxylic acid]
– | – | – | – | 68.7 ± 3.5 mL/min/kg | 48.4 ± 2.46 min | 30.61 ± 3.29 mL/min/kg | 500 to 2500 ng·h/mL | 500 to 1000 ng/mL | 90 to 150 min | 25 to 50% | < 500 ng·h/mL | > 2000 ng/mL | < 90 min | COc1cc(C(=O)O)cc2c1nc(CN1CCC(c3cccc(OCc4ccc(C#N)cc4F)n3)CC1)n2Cc1cncs1 [Compound 1, 2-((4-(6-((4-Cyano-2-fluorobenzyl)oxy)pyridin-2-yl)piperidin-1-yl)methyl)-4-methoxy-1-(thiazol-5-ylmethyl)-1H-benzo[d]imidazole-6-carboxylic acid]
